According to PubChem BioAssay (NCI):
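Interpolation was linear, between the two tested concentrations surrounding the appropriate level; five concentrations were tested over 48 hours in 96-well plates. TGI is the concentration that stops growth completely.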

Tests used:
Assay in all cases: growth of human tumour cells (NCI), 48 h
SNB-19 CNS = test system: SNB-19 CNS
786-0 renal = test system: 786-0 renal
HT29 colon = test system: HT29 colon
HL-60(TB) leukemia = test system: HL-60(TB) leukemia
A498 renal = test system: A498 renal
MDA-MB-435 = test system: MDA-MB-435
MALME-3M melanoma = test system: MALME-3M melanoma
HS 578T breast = test system: HS 578T breast
RPMI-8226 leukemia = test system: RPMI-8226 leukemia
EKVX NSCLC = test system: EKVX NSCLC
RXF 393 renal = test system: RXF 393 renal
HCT-116 colon = test system: HCT-116 colon
T-47D breast = test system: T-47D breast
A549 NSCLC = test system: A549 NSCLC
SW-620 colon = test system: SW-620 colon
UO-31 renal = test system: UO-31 renal
BT-549 breast = test system: BT-549 breast
TK-10 renal = test system: TK-10 renal
SN12C renal = test system: SN12C renal
OVCAR-8 ovarian = test system: OVCAR-8 ovarian
SK-MEL-2 melanoma = test system: SK-MEL-2 melanoma
SF-539 CNS = test system: SF-539 CNS
DU-145 prostate = test system: DU-145 prostate
SF-268 CNS = test system: SF-268 CNS
NCI-H23 lung = test system: NCI-H23 lung
SK-MEL-5 melanoma = test system: SK-MEL-5 melanoma
NCI-H522 lung = test system: NCI-H522 lung
NCI-H460 lung = test system: NCI-H460 lung
ACHN renal = test system: ACHN renal
K-562 leukemia = test system: K-562 leukemia
PC-3 prostate = test system: PC-3 prostate
UACC-62 melanoma = test system: UACC-62 melanoma
LOX IMVI melanoma = test system: LOX IMVI melanoma
HOP-92 NSCLC = test system: HOP-92 NSCLC
KM12 colon = test system: KM12 colon
OVCAR-5 ovarian = test system: OVCAR-5 ovarian
NCI/ADR-RES ovarian = test system: NCI/ADR-RES ovarian
SK-OV-3 ovarian = test system: SK-OV-3 ovarian
OVCAR-4 ovarian = test system: OVCAR-4 ovarian
IGROV1 ovarian = test system: IGROV1 ovarian
MCF7 breast = test system: MCF7 breast
SR leukemia = test system: SR leukemia
OVCAR-3 ovarian = test system: OVCAR-3 ovarian
COLO 205 colon = test system: COLO 205 colon
SK-MEL-28 melanoma = test system: SK-MEL-28 melanoma
SNB-75 CNS = test system: SNB-75 CNS
HOP-62 NSCLC = test system: HOP-62 NSCLC
U251 CNS = test system: U251 CNS
MDA-MB-231 breast = test system: MDA-MB-231 breast
UACC-257 melanoma = test system: UACC-257 melanoma
SF-295 CNS = test system: SF-295 CNS
CAKI-1 renal = test system: CAKI-1 renal
HCT-15 colon = test system: HCT-15 colon
M14 melanoma = test system: M14 melanoma
NCI-H226 lung = test system: NCI-H226 lung
MOLT-4 leukemia = test system: MOLT-4 leukemia
HCC-2998 colon = test system: HCC-2998 colon
CCRF-CEM leukemia = test system: CCRF-CEM leukemia

With `CN(Cc1cc(Cl)cc(Cl)c1)CC(C(=O)c1ccccc1)c1ccccc1` (configuration not stated) the TGI (SNB-19 CNS) was greater than 53 µM, the TGI (786-0 renal) was 10.4 µM and the TGI (HT29 colon) was 7.91 µM. The TGI (HL-60(TB) leukemia) was 47.4 µM, the TGI (A498 renal) was 64.8 µM and the TGI (MDA-MB-435) was 16 µM. For the same molecule, the TGI (MALME-3M melanoma) was 24 µM, the TGI (HS 578T breast) was greater than 57.7 µM and the TGI (RPMI-8226 leukemia) was greater than 100 µM. It also gave a TGI (EKVX NSCLC) of 57.6 µM, a TGI (RXF 393 renal) greater than 25.6 µM and a TGI (HCT-116 colon) of 2.36 µM. For the same molecule, the TGI (T-47D breast) was 8.68 µM, the TGI (A549 NSCLC) was greater than 100 µM and the TGI (SW-620 colon) was 2.92 µM. It also gave a TGI (UO-31 renal) of 19.9 µM, a TGI (BT-549 breast) of 17.6 µM and a TGI (TK-10 renal) of 23 µM. The TGI (SN12C renal) was 16.3 µM, the TGI (OVCAR-8 ovarian) was 21.2 µM and the TGI (SK-MEL-2 melanoma) was 29.7 µM. The TGI (SF-539 CNS) was 23.2 µM, the TGI (DU-145 prostate) was 20.9 µM and the TGI (SF-268 CNS) was 68.6 µM. For the same molecule, the TGI (NCI-H23 lung) was 7.06 µM, the TGI (SK-MEL-5 melanoma) was 29.9 µM and the TGI (NCI-H522 lung) was 4.39 µM. It also gave a TGI (NCI-H460 lung) greater than 100 µM, a TGI (ACHN renal) of 2.16 µM and a TGI (K-562 leukemia) greater than 100 µM. For the same molecule, the TGI (PC-3 prostate) was 29.3 µM, the TGI (UACC-62 melanoma) was 14.3 µM and the TGI (LOX IMVI melanoma) was 5.91 µM. The TGI (HOP-92 NSCLC) was greater than 91.3 µM, the TGI (KM12 colon) was 17.5 µM and the TGI (OVCAR-5 ovarian) was 19.1 µM. The TGI (NCI/ADR-RES ovarian) was 5.45 µM, the TGI (SK-OV-3 ovarian) was greater than 100 µM and the TGI (OVCAR-4 ovarian) was 12.4 µM. It also gave a TGI (IGROV1 ovarian) greater than 58.3 µM, a TGI (MCF7 breast) greater than 44.1 µM and a TGI (SR leukemia) greater than 100 µM. The TGI (OVCAR-3 ovarian) was 3.65 µM, the TGI (COLO 205 colon) was 16.3 µM and the TGI (SK-MEL-28 melanoma) was 9.8 µM. It also gave a TGI (SNB-75 CNS) of 31.3 µM, a TGI (HOP-62 NSCLC) of 71.3 µM and a TGI (U251 CNS) of 4.17 µM. The TGI (MDA-MB-231 breast) was 23.5 µM, the TGI (UACC-257 melanoma) was 14.9 µM and the TGI (SF-295 CNS) was greater than 100 µM. For the same molecule, the TGI (CAKI-1 renal) was 9.07 µM, the TGI (HCT-15 colon) was 1.84 µM and the TGI (M14 melanoma) was 13.5 µM. The TGI (NCI-H226 lung) was 22.4 µM.

Work on `CC(=O)N=C1N(/C=C2\C(=O)Oc3ccccc3C2=O)C(=O)/C(=C/c2ccc(Cl)cc2Cl)N1C` yielded a TGI (786-0 renal) greater than 100 µM, a TGI (HT29 colon) greater than 100 µM and a TGI (HL-60(TB) leukemia) greater than 100 µM. It also gave a TGI (A498 renal) greater than 100 µM, a TGI (MDA-MB-435) greater than 100 µM and a TGI (MALME-3M melanoma) greater than 100 µM. For the same molecule, the TGI (HS 578T breast) was 5.03 µM, the TGI (RPMI-8226 leukemia) was greater than 100 µM and the TGI (EKVX NSCLC) was greater than 100 µM. For the same molecule, the TGI (RXF 393 renal) was greater than 100 µM, the TGI (HCT-116 colon) was greater than 100 µM and the TGI (T-47D breast) was greater than 100 µM. The TGI (A549 NSCLC) was greater than 100 µM, the TGI (SW-620 colon) was greater than 100 µM and the TGI (MOLT-4 leukemia) was greater than 100 µM. It also gave a TGI (BT-549 breast) of 62 µM, a TGI (SN12C renal) greater than 100 µM and a TGI (OVCAR-8 ovarian) greater than 100 µM. It also gave a TGI (SK-MEL-2 melanoma) greater than 100 µM, a TGI (SF-539 CNS) greater than 100 µM and a TGI (DU-145 prostate) greater than 100 µM. It also gave a TGI (SF-268 CNS) greater than 100 µM, a TGI (NCI-H23 lung) greater than 100 µM and a TGI (SK-MEL-5 melanoma) greater than 100 µM. It also gave a TGI (NCI-H522 lung) greater than 100 µM, a TGI (ACHN renal) greater than 100 µM and a TGI (K-562 leukemia) greater than 100 µM. For the same molecule, the TGI (HCC-2998 colon) was greater than 100 µM, the TGI (PC-3 prostate) was greater than 100 µM and the TGI (UACC-62 melanoma) was greater than 100 µM. The TGI (LOX IMVI melanoma) was greater than 100 µM, the TGI (KM12 colon) was greater than 100 µM and the TGI (OVCAR-5 ovarian) was greater than 100 µM. The TGI (NCI/ADR-RES ovarian) was greater than 100 µM, the TGI (SK-OV-3 ovarian) was greater than 100 µM and the TGI (OVCAR-4 ovarian) was greater than 100 µM. It also gave a TGI (IGROV1 ovarian) greater than 100 µM, a TGI (MCF7 breast) greater than 100 µM and a TGI (SR leukemia) of 94.2 µM. It also gave a TGI (OVCAR-3 ovarian) greater than 100 µM, a TGI (COLO 205 colon) greater than 100 µM and a TGI (SK-MEL-28 melanoma) greater than 100 µM. For the same molecule, the TGI (SNB-75 CNS) was greater than 100 µM, the TGI (HOP-62 NSCLC) was greater than 100 µM and the TGI (U251 CNS) was greater than 100 µM. The TGI (CCRF-CEM leukemia) was greater than 100 µM, the TGI (MDA-MB-231 breast) was greater than 100 µM and the TGI (UACC-257 melanoma) was greater than 100 µM. The TGI (SF-295 CNS) was greater than 100 µM, the TGI (CAKI-1 renal) was greater than 100 µM and the TGI (HCT-15 colon) was greater than 100 µM. For the same molecule, the TGI (M14 melanoma) was greater than 100 µM and the TGI (NCI-H226 lung) was greater than 100 µM.

`FC1C2=C(SC1(F)F)C1CCC2C1` (configuration not stated) showed a TGI (SNB-19 CNS) greater than 100 µM, a TGI (786-0 renal) greater than 100 µM and a TGI (HT29 colon) greater than 100 µM. The TGI (HL-60(TB) leukemia) was greater than 100 µM, the TGI (MDA-MB-435) was greater than 100 µM and the TGI (MALME-3M melanoma) was greater than 100 µM. The TGI (HS 578T breast) was greater than 100 µM, the TGI (RPMI-8226 leukemia) was greater than 100 µM and the TGI (EKVX NSCLC) was greater than 100 µM. The TGI (RXF 393 renal) was greater than 100 µM, the TGI (HCT-116 colon) was greater than 100 µM and the TGI (T-47D breast) was greater than 100 µM. The TGI (A549 NSCLC) was greater than 100 µM, the TGI (SW-620 colon) was greater than 100 µM and the TGI (MOLT-4 leukemia) was greater than 100 µM. For the same molecule, the TGI (UO-31 renal) was greater than 100 µM, the TGI (BT-549 breast) was greater than 100 µM and the TGI (TK-10 renal) was greater than 100 µM. It also gave a TGI (OVCAR-8 ovarian) greater than 100 µM, a TGI (SK-MEL-2 melanoma) greater than 100 µM and a TGI (DU-145 prostate) greater than 100 µM. It also gave a TGI (NCI-H23 lung) greater than 100 µM, a TGI (SK-MEL-5 melanoma) greater than 100 µM and a TGI (NCI-H522 lung) greater than 100 µM. For the same molecule, the TGI (NCI-H460 lung) was greater than 100 µM, the TGI (ACHN renal) was greater than 100 µM and the TGI (K-562 leukemia) was greater than 100 µM. It also gave a TGI (PC-3 prostate) greater than 100 µM, a TGI (UACC-62 melanoma) greater than 100 µM and a TGI (LOX IMVI melanoma) greater than 100 µM. It also gave a TGI (HOP-92 NSCLC) greater than 100 µM, a TGI (KM12 colon) greater than 100 µM and a TGI (OVCAR-5 ovarian) greater than 100 µM. For the same molecule, the TGI (NCI/ADR-RES ovarian) was greater than 100 µM, the TGI (SK-OV-3 ovarian) was greater than 100 µM and the TGI (OVCAR-4 ovarian) was greater than 100 µM. The TGI (IGROV1 ovarian) was greater than 100 µM, the TGI (MCF7 breast) was greater than 100 µM and the TGI (SR leukemia) was greater than 100 µM. It also gave a TGI (OVCAR-3 ovarian) greater than 100 µM, a TGI (COLO 205 colon) greater than 100 µM and a TGI (SNB-75 CNS) greater than 100 µM. For the same molecule, the TGI (MDA-MB-231 breast) was greater than 100 µM, the TGI (UACC-257 melanoma) was greater than 100 µM and the TGI (SF-295 CNS) was greater than 100 µM. For the same molecule, the TGI (CAKI-1 renal) was greater than 100 µM, the TGI (HCT-15 colon) was greater than 100 µM and the TGI (M14 melanoma) was greater than 100 µM. It also gave a TGI (NCI-H226 lung) greater than 100 µM.
